Reference: US9233946B2, “Sulfonamide compounds” (KANCERA AB, priority 2010, dated 2016)

How the values were obtained:
PFKFB4 = PFKFB4 (Homo sapiens (Human), UniProt Q16877); assay: PFKFB4 kinase activity, Method B (ADP-Glo Kinase Assay); format: biochemical
Source text: (§1) The PFKFB3 (placenta form) and PFKFB4 were produced and purified to homogeneity from E. coli at Biovitrum and at Sprint Bioscience. All other reagents were purchased from commercial sources. Two independent methods have been used for determination of the kinase activity of PFKFB3 (Method A and Method B). Method B has been used for determination of the kinase activity of PFKFB4.
(§2) Method B: The kinase activity of the bi-functional enzyme is readily quantified based on the production of ADP and F-2,6-P2 from ATP and F6P. The ADP is detected with a kit, ADP-Glo™ Kinase Assay^(a-e), from Promega. The assay is a luminescent ADP detection assay that measures kinase activity by quantifying the amount of ADP produced during the kinase reaction. The assay is performed in two steps; first, after the kinase reaction, an equal volume of ADP-Glo™ Reagent is added to terminate the kinase reaction and deplete the remaining ATP. Second, the Kinase Detection Reagent is added to simultaneously convert ADP to ATP and allow the newly synthesized ATP to be measured using a luciferase/luciferine reaction. The light generated is measured using a luminescence counter (1450 MicroBeta TriLux).
(§3) The assay was performed in white 384-well microtiter plates (OptiPlate, 6007299, PerkinElmer) by consecutive additions of 0.1 μL of a test compound solution (serial diluted in DMSO from compound DMSO stock solution and dispensed by acoustic dispensing from UV-star 384-well plate 7360153, VWR), 5 μL of enzyme solution and 5 μL of a substrate (fructose-6-phosphate (F6P) and adenosine-5′-triphosphate (ATP)) containing solution. […] Four reference dose response curves, one of them being the QC compound, were included in row O1-2, P1-2, and serial diluted as the test compounds. The final concentrations of all reagents in a total assay volume of 10.1 μL per well were: • 50 mM Tris-HCl at pH 8.0 • 10 mM MgCl2 • 5 mM Na2HPO4 at pH 8.0 • 81.48 nM PFKFB3 or 145 nM PFKFB4 • 8 μM ATP • 100 μM F6P (acid treated and then neutralized to remove any contaminating F-2,6-P2; see Van Schaftingen, 1984) • 0.005% Tween-20 • 1 mM dithiothreitol (DTT) • A test compound at various concentrations or controls (final DMSO concentration 0.99%)
(§4) Enzyme, compounds and controls were pre-incubated at room temperature for 15 min before the addition of substrate solution. The enzymatic reaction was allowed to proceed for 20 min (PFKFB3) or 40 min (PFKFB4) at room temperature. The reaction was terminated by the addition of 10 μL of ADP-Glo™ Reagent to all wells and the plate was incubated for 40 min at room temperature. After addition of 20 μL Kinase Detection Reagent to all wells the plate was incubated for 30 min at room temperature, followed by measurement in 1450 MicroBeta TriLux. All plates were centrifuged after each addition (room temperature, short spin, 500 RPM, Megafuge 1.0 Heraeus Instruments).
(§5) The inhibitory potency or IC50 values of test compounds on the kinase activity of PFKFB3 or PFKFB4 were calculated using a four-parameter model (model 205) in XLfit (IDBS ActivityBase XE Runner).

PFKFB3 = PFKFB3 (Homo sapiens (Human), UniProt Q16875); assay: PFKFB3 kinase activity, Method B (ADP-Glo Kinase Assay); format: biochemical
PFKFB3, sequence (Q16875 whole entry): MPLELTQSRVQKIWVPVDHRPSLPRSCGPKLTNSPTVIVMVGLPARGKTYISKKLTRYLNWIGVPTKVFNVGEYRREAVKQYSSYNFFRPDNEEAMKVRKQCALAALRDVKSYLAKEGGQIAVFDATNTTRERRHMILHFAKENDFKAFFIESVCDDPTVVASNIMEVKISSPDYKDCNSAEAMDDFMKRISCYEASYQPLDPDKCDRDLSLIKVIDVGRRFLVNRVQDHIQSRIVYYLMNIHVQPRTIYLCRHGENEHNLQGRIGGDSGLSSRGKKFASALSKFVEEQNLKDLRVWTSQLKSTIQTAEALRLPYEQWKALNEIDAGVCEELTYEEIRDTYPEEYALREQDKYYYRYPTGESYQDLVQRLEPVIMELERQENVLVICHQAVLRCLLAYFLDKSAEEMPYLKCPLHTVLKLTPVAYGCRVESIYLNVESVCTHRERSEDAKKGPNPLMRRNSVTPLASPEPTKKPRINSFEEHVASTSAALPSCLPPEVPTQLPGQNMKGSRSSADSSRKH
Source text: as §1, §2, §3, §4, §5

PANC-1 cells = assay: Quantification of F-2,6-P2 in PANC-1 cells; format: cell-based; conditions: Homo sapiens, PANC-1; read-out: IC50 based on quantification of F-2,6-P2
Source text: The relative kinase (formation) and phosphatase (degradation) activities of the bi-functional enzymes PFKFB3 and PFKFB4 control the intracellular levels of the regulator F-2,6-P2, which acts as an allosteric activator of glycolysis. The levels of F-2,6-P2 have been determined in three different cancer cell lines (MCF-7, PANC-1 and NUGC-3) using the van Shaftingen assay. The assay protocols described under “Methods for measurement of enzymatic activity of PFKFB3 and PFKFB4, Method A” have been adapted for the measurement of the inhibitory effect of compounds on the kinase activity of the various isoforms of the bifunctional enzyme (endogenously expressed) in the different cell lines. The modifications are described in the protocol below. All reagents were purchased from commercial sources or prepared inhouse.
Cell Line B (PANC-1, Human Pancreatic Carcinoma Cell Line)
• Cells: PANC-1 (ATCC-CRL-1469). Lot. no: 58564651. • Growth medium: Dulbecco's Modified Eagle's Medium, DMEM, ATCC-30-2002 10% FBS, Invitrogen, 10106-169
Cells were seeded at a concentration of 250 000 cells/mL in 100 μL growth medium (25 000 cells/well)
Starvation medium: DMEM/F12 without phenol red and glucose free, SVA, 991373 0.25% FBS, Invitrogen, 10106-169
Induction medium: DMEM/F12 without phenol red and glucose free, SVA, 991373 0.25% FBS, Invitrogen, 10106-169 (same as starvation medium)
Cells were seeded in 96-well Corning Costar tissue culture plates (CLS3595, Sigma-Aldrich) using the concentrations specified above for the three different cell lines A-C and incubated over night at 37° C. and 5% CO2. Row A was left empty. Next day the growth medium was discarded and replaced with 100 μL starvation medium. The plates were incubated for 18 h at 37° C. and 5% CO2. After 18 h of starvation the cells were induced with 100 μL compound or control solutions. Compounds were either tested in two concentrations (50 μM and 10 μM) or in dose response curves starting from 50 μM and the final DMSO concentration in assay plates was 0.5%. Also a dose response curve of a reference inhibitor was included in row H on each plate. All compounds were tested in duplicate plates. Compounds (in 96 well CLS 3365, Sigma-Aldrich) were serial diluted in DMSO from 10 mM compound DMSO stock solutions with Janus (automated liquid handling workstation from PerkinElmer). 5 μL were transferred to a Greiner deep well plate (736-0155, VWR) with 495 μL starvation medium. The final start concentration of compounds in the dilution plate was 100 μM, 1% DMSO. For compounds tested as single points, 10 mM compound solutions were diluted five fold in DMSO to 2 mM, followed by the transfer of 5 μL to separate dilution plates with 495 μL starvation medium. The final concentration of compounds in these dilution plates were 100 or 20 μM, respectively, and final concentration of DMSO was 1%. The plates were incubated at 37° C. and 5% CO2 for 1 h, followed by the addition of 10 μL 20 mM D-glucose in starvation medium. Controls, with and without 1 mM glucose, were included in row B. The final assay volume was 210 μL per well. After 2 h of incubation at 37° C. and 5% CO2, supernatants were discarded and the cells were lysed by the addition of 25 μL 250 mM NaOH. The plates were incubated at 37° C. and 5% CO2 for 5 min followed by an addition of 75 μL MilliQ dH2O. The supernatants were further diluted with 210 μL MilliQ dH2O to a final concentration of 20 mM NaOH. 200 μL were transferred to NUNC 96-well plates (7322661, VWR) and the plates were sealed and stored at −20° C. until analysis.
The amount of F-2,6-P2 was quantified based on the coupled enzymatic reaction described by Van Schaftingen. If necessary the samples were further diluted in 20 mM NaOH before quantification. Plates stored at −20° C. were thawed and the F-2,6-P2 quantification was initiated by transferring 40 μL from each well of the NUNC plate to the corresponding position in a trans-parent 96-well SpectraPlate-MB (6005649, PerkinElmer). […]

PFKFB4, sequence (Q16877 whole entry): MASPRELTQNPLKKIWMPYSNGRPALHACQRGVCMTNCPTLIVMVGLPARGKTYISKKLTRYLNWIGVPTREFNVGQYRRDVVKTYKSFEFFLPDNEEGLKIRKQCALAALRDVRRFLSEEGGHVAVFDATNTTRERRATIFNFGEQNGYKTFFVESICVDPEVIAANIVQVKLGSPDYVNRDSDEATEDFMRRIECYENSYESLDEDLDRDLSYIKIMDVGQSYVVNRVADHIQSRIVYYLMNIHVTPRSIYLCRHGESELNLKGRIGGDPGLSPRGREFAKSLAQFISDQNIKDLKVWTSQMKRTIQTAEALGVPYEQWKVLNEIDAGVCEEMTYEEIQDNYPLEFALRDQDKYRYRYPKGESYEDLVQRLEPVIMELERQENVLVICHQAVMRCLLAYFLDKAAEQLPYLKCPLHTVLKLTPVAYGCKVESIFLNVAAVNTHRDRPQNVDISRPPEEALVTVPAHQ

| Compound | IC50 (PFKFB4) [nM] | IC50 (PFKFB3) [nM] | IC50 (PANC-1 cells) [nM] |
| --- | --- | --- | --- |
| O=S(=O)(Nc1cccc(-c2nnn[nH]2)c1)c1ccc(Br)cc1F [Example 57, 4-Bromo-2-fluoro-N-[3-(1H-tetrazol-5-yl)phenyl]benzenesulfonamide] | 1830 | – | – |
| Cc1c(S(=O)(=O)Nc2ccc(O)c(C(=O)O)c2)sc2ccc(Cl)cc12 [Example 138, 5-{[(5-Chloro-3-methyl-1-benzothiophen-2-yl)sulfonyl]amino}-2-hydroxybenzoic acid] | – | 9030 | – |
| Cc1ccc2sc(S(=O)(=O)Nc3cccc(-c4nnn[nH]4)c3)cc2c1 [Example 40, 5-Methyl-N-[3-(1H-tetrazol-5-yl)phenyl]-1-benzothiophene-2-sulfonamide] | 140 | – | – |
| COc1cccc2c(C)c(S(=O)(=O)Nc3cccc(C(=O)O)c3)sc12 [Example 42, 3-{[(7-Methoxy-3-methyl-1-benzothien-2-yl)sulfonyl]amino}benzoic acid] | 420 | – | – |
| Cc1ccc(-c2ccc(S(=O)(=O)Nc3cccc(-c4nnn[nH]4)c3)s2)cc1 [Example 27, 5-(4-Methylphenyl)-N-[3-(1H-tetrazol-5-yl)phenyl]thiophene-2-sulfonamide] | 480 | – | 13800 |
| O=S(=O)(Nc1cccc(-c2nnn[nH]2)c1)c1ccc(-c2ccccc2Cl)s1 [Example 26, 5-(2-Chlorophenyl)-N-[3-(1H-tetrazol-5-yl)phenyl]thiophene-2-sulfonamide] | 750 | – | – |
| Cc1c(S(=O)(=O)Nc2ncc(C(=O)O)s2)sc2ccc(C(C)C)cc12 [Example 7, 2-{[(5-Isopropyl-3-methyl-1-benzothien-2-yl)sulfonyl]amino}-1,3-thiazole-5-carboxylic acid] | 100 | – | – |
| COc1ccc(-c2ccc(S(=O)(=O)Nc3cccc(-c4nnn[nH]4)c3)cc2)cc1 [Example 85, 4′-Methoxy-N-[3-(1H-tetrazol-5-yl)phenyl]biphenyl-4-sulfonamide] | 3720 | – | – |
| Cc1c(S(=O)(=O)Nc2cccc(C(=O)O)c2)sc2c(Cl)cccc12 [Example 44, 3-{[(7-Chloro-3-methyl-1-benzothien-2-yl)sulfonyl]amino}benzoic acid] | 200 | – | – |
| O=S(=O)(Nc1cccc(-c2nnn[nH]2)c1)c1ccc(-c2cccc(C(F)(F)F)c2)s1 [Example 99, N-[3-(1H-Tetrazol-5-yl)phenyl]-5-[3-(trifluoromethyl)phenyl]thiophene-2-sulfonamide] | – | 1420 | – |
| CSc1nccc(-c2ccc(S(=O)(=O)Nc3cccc(C(=O)O)c3)s2)n1 [Example 61, 3-[[5-(2-Methylsulfanylpyrimidin-4-yl)-2-thienyl]sulfonylamino]benzoic acid] | – | 2240 | – |
| O=S(=O)(Nc1cccc(-c2nnn[nH]2)c1)c1cccc(-c2ccccc2)c1 [Example 16, N-[3-(1H-Tetrazol-5-yl)phenyl]biphenyl-3-sulfonamide] | 390 | – | – |
| Cc1c(S(=O)(=O)Nc2cccc(-c3nnn[nH]3)c2)sc2ccccc12 [Example 39, 3-Methyl-N-[3-(1H-tetrazol-5-yl)phenyl]-1-benzothiophene-2-sulfonamide] | – | 280 | – |
| O=S(=O)(Nc1cccc(-c2nnn[nH]2)c1)c1ccc(-c2ccc(Cl)c(Cl)c2)cc1 [Example 86, 3′,4′-Dichloro-N-[3-(1H-tetrazol-5-yl)phenyl]biphenyl-4-sulfonamide] | – | 2800 | – |
| O=S(=O)(Nc1cccc(-c2nnn[nH]2)c1)c1c(Cl)cc(C(F)(F)F)cc1Cl [Example 18, 2,6-Dichloro-N-[3-(1H-tetrazol-5-yl)phenyl]-4-(trifluoromethyl)benzenesulfonamide] | 510 | – | – |
| O=S(=O)(Nc1cccc(-c2nnn[nH]2)c1)c1ccc(-c2ccc(F)cc2F)s1 [Example 101, 5-(2,4-Difluorophenyl)-N-[3-(1H-tetrazol-5-yl)phenyl]thiophene-2-sulfonamide] | 600 | – | – |
| Cc1c(S(=O)(=O)Nc2cccc(C(=O)O)c2O)sc2ccc(Cl)cc12 [Example 134, 3-{[(5-Chloro-3-methyl-1-benzothiophen-2-yl)sulfonyl]amino}-2-hydroxybenzoic acid] | 180 | – | – |
| CSc1nccc(-c2ccc(S(=O)(=O)Nc3cccc(-c4nnn[nH]4)c3)s2)n1 [Example 21, 5-[2-(Methylthio)pyrimidin-4-yl]-N-[3-(1H-tetrazol-5-yl)phenyl]thiophene-2-sulfonamide] | 420 | – | – |
| COc1ccccc1-c1ccc(S(=O)(=O)Nc2cccc(-c3nnn[nH]3)c2)s1 [Example 24, 5-(2-Methoxyphenyl)-N-[3-(1H-tetrazol-5-yl)phenyl]thiophene-2-sulfonamide] | 660 | – | 11000 |
| Cc1c(S(=O)(=O)Nc2cccc(-c3nnn[nH]3)c2)sc2ccc(F)cc12 [Example 43, 5-Fluoro-3-methyl-N-[3-(1H-tetrazol-5-yl)phenyl]-1-benzothiophene-2-sulfonamide] | 170 | – | – |
| O=S(=O)(Nc1cccc(-c2nnn[nH]2)c1)c1ccc(-c2ccc(F)c(Cl)c2)s1 [Example 102, 5-(3-Chloro-4-fluorophenyl)-N-[3-(1H-tetrazol-5-yl)phenyl]thiophene-2-sulfonamide] | 660 | – | – |
